Patent publication US9636418B2 (priority 2013, dated 2017)
Where “and” joins values, the source holds several entries; their conditions need not be identical. Equal values may be shown once. Read-outs that look alike come from different tables or passages of the source.

Assays:
hNav1.7 = hNav1.7 (Homo sapiens, UniProt Q15858); assay: cell-based; format: cell-based; conditions: PatchXpress, read-out: PX hNav1.7 Tonic IC50
hNav1.4 = hNav1.4 (Homo sapiens, UniProt P35499); assay: cell-based; conditions: for IC50: PatchXpress, read-out: PX hNav1.4 Tonic IC50; for Nav1.4/Nav1.7: ratio of PX tonic IC50 values
[1] = * = at high concentrations compound would wash off slowly or not at all

hNav1.4, sequence (P35499 whole entry): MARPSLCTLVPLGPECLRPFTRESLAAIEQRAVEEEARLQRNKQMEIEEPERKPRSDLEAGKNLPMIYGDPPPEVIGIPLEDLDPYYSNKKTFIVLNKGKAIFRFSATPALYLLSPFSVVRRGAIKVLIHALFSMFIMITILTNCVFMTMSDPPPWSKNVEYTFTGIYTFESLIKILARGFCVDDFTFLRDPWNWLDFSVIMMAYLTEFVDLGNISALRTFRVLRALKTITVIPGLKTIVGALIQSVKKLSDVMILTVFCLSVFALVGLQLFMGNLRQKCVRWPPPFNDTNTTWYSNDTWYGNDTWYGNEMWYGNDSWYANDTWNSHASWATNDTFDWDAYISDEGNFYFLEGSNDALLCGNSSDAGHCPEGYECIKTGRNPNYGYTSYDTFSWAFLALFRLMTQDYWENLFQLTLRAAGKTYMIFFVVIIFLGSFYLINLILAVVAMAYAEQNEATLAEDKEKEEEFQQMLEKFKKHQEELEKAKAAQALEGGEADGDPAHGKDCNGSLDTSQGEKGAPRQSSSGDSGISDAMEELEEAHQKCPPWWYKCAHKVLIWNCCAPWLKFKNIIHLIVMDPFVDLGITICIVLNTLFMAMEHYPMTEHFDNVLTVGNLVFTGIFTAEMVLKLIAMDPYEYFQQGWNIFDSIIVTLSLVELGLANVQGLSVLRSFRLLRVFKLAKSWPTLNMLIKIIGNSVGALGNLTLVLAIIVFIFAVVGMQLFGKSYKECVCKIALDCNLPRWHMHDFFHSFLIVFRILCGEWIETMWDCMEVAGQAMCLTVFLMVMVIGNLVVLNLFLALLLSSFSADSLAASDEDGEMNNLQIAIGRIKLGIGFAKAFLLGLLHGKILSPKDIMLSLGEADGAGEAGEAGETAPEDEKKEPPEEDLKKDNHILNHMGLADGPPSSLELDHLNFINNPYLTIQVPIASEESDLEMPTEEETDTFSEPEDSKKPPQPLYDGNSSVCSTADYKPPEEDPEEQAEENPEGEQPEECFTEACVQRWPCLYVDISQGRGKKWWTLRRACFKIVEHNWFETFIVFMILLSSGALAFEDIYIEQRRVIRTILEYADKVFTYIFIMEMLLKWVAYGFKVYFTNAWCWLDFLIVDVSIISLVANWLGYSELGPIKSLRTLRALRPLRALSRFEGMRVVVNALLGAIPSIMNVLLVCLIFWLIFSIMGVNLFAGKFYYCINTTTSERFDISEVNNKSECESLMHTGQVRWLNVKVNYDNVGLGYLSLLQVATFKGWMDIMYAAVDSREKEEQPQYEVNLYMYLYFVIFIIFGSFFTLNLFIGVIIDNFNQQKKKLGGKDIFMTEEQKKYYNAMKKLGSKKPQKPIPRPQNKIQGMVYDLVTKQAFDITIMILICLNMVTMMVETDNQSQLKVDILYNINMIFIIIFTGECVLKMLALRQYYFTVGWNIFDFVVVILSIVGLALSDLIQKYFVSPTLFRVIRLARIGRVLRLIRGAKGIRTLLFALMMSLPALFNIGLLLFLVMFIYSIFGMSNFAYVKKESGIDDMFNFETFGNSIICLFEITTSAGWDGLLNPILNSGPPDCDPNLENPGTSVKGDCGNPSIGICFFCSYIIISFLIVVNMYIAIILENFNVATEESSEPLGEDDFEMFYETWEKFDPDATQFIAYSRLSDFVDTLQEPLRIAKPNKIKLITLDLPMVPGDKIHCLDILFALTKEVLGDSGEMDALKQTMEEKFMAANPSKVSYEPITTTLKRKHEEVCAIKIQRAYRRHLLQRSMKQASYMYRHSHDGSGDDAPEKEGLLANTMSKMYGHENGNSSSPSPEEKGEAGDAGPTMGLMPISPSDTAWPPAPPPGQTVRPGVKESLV
hNav1.7, sequence (Q15858 whole entry): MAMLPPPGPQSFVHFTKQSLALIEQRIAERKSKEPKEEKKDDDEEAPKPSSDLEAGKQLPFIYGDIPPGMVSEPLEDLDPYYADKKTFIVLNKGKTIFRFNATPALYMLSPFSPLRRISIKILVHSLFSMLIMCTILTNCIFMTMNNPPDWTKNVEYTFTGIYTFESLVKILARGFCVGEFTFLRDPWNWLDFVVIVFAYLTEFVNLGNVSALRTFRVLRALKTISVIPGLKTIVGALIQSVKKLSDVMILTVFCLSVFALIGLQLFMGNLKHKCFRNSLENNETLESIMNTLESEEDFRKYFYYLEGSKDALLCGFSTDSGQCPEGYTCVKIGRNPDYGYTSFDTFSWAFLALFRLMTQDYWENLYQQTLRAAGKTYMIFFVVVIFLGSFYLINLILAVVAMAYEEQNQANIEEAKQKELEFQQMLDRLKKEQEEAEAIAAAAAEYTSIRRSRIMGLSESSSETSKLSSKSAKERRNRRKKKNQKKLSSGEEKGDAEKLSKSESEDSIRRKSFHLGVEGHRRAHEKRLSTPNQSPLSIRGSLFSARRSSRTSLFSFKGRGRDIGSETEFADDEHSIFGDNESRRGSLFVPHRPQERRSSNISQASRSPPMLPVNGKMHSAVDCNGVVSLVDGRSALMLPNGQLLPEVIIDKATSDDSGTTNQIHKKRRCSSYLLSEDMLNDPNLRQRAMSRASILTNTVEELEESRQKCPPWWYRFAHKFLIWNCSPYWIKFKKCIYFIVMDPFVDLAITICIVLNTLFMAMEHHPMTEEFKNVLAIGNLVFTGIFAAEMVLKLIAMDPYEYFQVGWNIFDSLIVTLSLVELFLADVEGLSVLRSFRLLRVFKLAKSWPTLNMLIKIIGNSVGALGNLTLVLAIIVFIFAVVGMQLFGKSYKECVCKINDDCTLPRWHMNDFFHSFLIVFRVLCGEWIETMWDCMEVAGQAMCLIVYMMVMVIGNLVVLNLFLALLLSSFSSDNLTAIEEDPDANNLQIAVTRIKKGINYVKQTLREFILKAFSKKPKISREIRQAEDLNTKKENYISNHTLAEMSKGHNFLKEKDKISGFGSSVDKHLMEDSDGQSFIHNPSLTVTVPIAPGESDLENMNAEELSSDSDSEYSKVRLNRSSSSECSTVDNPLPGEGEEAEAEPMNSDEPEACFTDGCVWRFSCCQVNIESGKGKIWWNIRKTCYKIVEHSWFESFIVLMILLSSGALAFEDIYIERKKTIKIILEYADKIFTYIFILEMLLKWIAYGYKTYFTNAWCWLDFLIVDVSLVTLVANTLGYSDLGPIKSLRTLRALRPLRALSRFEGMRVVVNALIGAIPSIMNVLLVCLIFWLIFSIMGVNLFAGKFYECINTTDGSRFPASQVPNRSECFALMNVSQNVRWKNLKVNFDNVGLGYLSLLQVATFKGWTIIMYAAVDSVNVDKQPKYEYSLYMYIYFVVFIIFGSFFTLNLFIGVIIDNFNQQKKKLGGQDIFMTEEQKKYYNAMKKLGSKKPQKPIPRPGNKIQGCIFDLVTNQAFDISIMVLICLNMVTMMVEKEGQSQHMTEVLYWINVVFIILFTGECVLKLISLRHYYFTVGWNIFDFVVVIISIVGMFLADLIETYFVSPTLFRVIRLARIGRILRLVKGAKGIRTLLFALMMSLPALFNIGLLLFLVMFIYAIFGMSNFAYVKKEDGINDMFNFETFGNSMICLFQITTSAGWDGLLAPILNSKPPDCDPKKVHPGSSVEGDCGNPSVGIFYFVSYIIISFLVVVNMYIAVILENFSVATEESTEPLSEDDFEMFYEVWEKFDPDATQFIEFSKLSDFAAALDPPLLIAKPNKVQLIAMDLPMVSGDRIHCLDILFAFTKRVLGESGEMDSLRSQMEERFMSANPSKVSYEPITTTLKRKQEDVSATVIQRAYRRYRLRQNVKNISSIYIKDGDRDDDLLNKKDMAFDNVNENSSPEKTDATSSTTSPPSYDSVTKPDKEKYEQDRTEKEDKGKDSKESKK

In the case of `CCCC[C@@H]1NC(=O)[C@H](Cc2c[nH]c3ccccc23)NC(=O)[C@H](CCCCN)NC(=O)[C@H](CCC(N)=O)NC(=O)[C@@H](NC(=O)[C@@H](N)Cc2cn(CCCOCCOCCOCCOCCOCCOCCOCCOCCOCCOCCN)nn2)CSSC[C@@H]2NC(=O)[C@@H]3CSSC[C@@H](C(=O)N[C@@H](CCCNC(=N)N)C(=O)N[C@@H](CCCCN)C(=O)N[C@H](C(=O)N[C@H](C(N)=O)[C@@H](C)CC)[C@@H](C)CC)NC(=O)[C@H](Cc4c[nH]c5ccccc45)NC(=O)[C@H](CC(C)C)NC(=O)[C@H](CCCCN)NC(=O)[C@H](CSSC[C@H](NC(=O)[C@H]([C@@H](C)O)NC(=O)[C@H](Cc4c[nH]c5ccccc45)NC1=O)C(=O)N[C@@H](CC(=O)O)C(=O)N[C@@H](CO)C(=O)N[C@@H](CCCCN)C(=O)N[C@@H](CCCNC(=N)N)C(=O)N[C@@H](C)C(=O)N3)NC(=O)[C@H](CCC(=O)O)NC(=O)[C@H](CC(C)C)NC(=O)CNC(=O)[C@H](CCC(=O)O)NC2=O` [compound 407], the IC50 (hNav1.7; [1]) is reported as 6.48 nM and the IC50 (hNav1.4; [1]) is reported as 549 nM.

Work on `C#CC[C@H](N)C(=O)NCCCC[C@@H]1NC(=O)[C@H](CCCNC(=N)N)NC(=O)[C@H](CCCCN)NC(=O)[C@H](CO)NC(=O)[C@H](CC(=O)O)NC(=O)[C@@H]2CSSC[C@@H]3NC(=O)[C@H](CCC(=O)O)NC(=O)[C@H](CC(C)C)NC(=O)CNC(=O)[C@H](CCC(=O)O)NC(=O)[C@H](CSSC[C@H](NC(=O)[C@H](Cc4ccc(O)cc4)NC(=O)[C@@H](N)CC#N)C(=O)N[C@@H](CCC(N)=O)C(=O)N[C@@H](CCCCN)C(=O)N[C@@H](Cc4c[nH]c5ccccc45)C(=O)N[C@@H](CCCC)C(=O)N[C@@H](Cc4c[nH]c5ccccc45)C(=O)N[C@@H]([C@@H](C)O)C(=O)N2)NC(=O)[C@H](CSSC[C@@H](C(=O)N[C@@H](CCCNC(=N)N)C(=O)N[C@@H](CCCCN)C(=O)N[C@@H](Cc2ccc(O)cc2)C(=O)N[C@H](C(N)=O)[C@@H](C)CC)NC(=O)[C@H](Cc2c[nH]c4ccccc24)NC(=O)[C@H](CC(C)C)NC(=O)[C@H](CCCCN)NC3=O)NC1=O` [compound 394] yielded an IC50 (hNav1.7; tonic block) of 0.05 nM and an IC50 (hNav1.4; tonic block) of 964 nM.

With `C#CC[C@H](N)C(=O)NCCCC[C@@H]1NC(=O)[C@H](CCCNC(=N)N)NC(=O)[C@H](CCCCN)NC(=O)[C@H](CO)NC(=O)[C@H](CC(=O)O)NC(=O)[C@@H]2CSSC[C@@H]3NC(=O)[C@H](CCCNC(=N)N)NC(=O)[C@H](CC(C)C)NC(=O)CNC(=O)[C@H](CCC(=O)O)NC(=O)[C@H](CSSC[C@H](NC(=O)[C@H](Cc4ccc(O)cc4)NC(=O)[C@@H](N)CCC)C(=O)N[C@@H](CCC(N)=O)C(=O)N[C@@H](CCCCN)C(=O)N[C@@H](Cc4c[nH]c5ccccc45)C(=O)N[C@@H](CC(C)C)C(=O)N[C@@H](Cc4c[nH]c5ccccc45)C(=O)N[C@@H]([C@@H](C)O)C(=O)N2)NC(=O)[C@H](CSSC[C@@H](C(=O)N[C@@H](CCCNC(=N)N)C(=O)N[C@@H](CCCCN)C(=O)N[C@H](C(=O)N[C@H](C(N)=O)[C@@H](C)CC)[C@@H](C)CC)NC(=O)[C@H](Cc2c[nH]c4ccccc24)NC(=O)[C@H](CC(C)C)NC(=O)[C@H](CCCCN)NC3=O)NC1=O` [compound 438] the IC50 (hNav1.7; tonic block) was 2.38 nM and 1.57 nM, the IC50 (hNav1.4; tonic block) was 16.1 nM and the Nav1.4/Nav1.7 (hNav1.4) was 7.

Molecule `C#CC[C@H](N)C(=O)NCCCC[C@@H]1NC(=O)[C@H](CCCNC(=N)N)NC(=O)[C@H](CCCCN)NC(=O)[C@H](CO)NC(=O)[C@H](CC(=O)O)NC(=O)[C@@H]2CSSC[C@@H]3NC(=O)[C@H](CCCNC(=N)N)NC(=O)[C@H](CC(C)C)NC(=O)CNC(=O)[C@H](CCC(=O)O)NC(=O)[C@H](CSSC[C@H](NC(=O)[C@H](Cc4ccc(O)cc4)NC(=O)[C@@H](N)CCC)C(=O)N[C@@H](CCC(N)=O)C(=O)N[C@@H](CCCCN)C(=O)N[C@@H](Cc4c[nH]c5ccccc45)C(=O)N[C@@H](CCCC)C(=O)N[C@@H](Cc4c[nH]c5ccccc45)C(=O)N[C@@H]([C@@H](C)O)C(=O)N2)NC(=O)[C@H](CSSC[C@@H](C(=O)N[C@@H](CCCNC(=N)N)C(=O)N[C@@H](CCCCN)C(=O)N[C@@H](CCC(=O)O)C(=O)N[C@H](C(N)=O)[C@@H](C)CC)NC(=O)[C@H](Cc2c[nH]c4ccccc24)NC(=O)[C@H](CC(C)C)NC(=O)[C@H](CCCCN)NC3=O)NC1=O` [compound 435] has an IC50 (hNav1.7; tonic block) of 2.19 nM, an IC50 (hNav1.4; tonic block) of 217 nM and a Nav1.4/Nav1.7 (hNav1.4) of 99.

`C#CC[C@H](N)C(=O)NCCOCCOCCOCCOCCC(=O)NCCCC[C@@H]1NC(=O)[C@H](CCCNC(=N)N)NC(=O)[C@H](CCCCN)NC(=O)[C@H](CO)NC(=O)[C@H](CC(=O)O)NC(=O)[C@@H]2CSSC[C@@H]3NC(=O)[C@H](CCCNC(=N)N)NC(=O)[C@H](CC(C)C)NC(=O)CNC(=O)[C@H](CCC(=O)O)NC(=O)[C@H](CSSC[C@H](NC(=O)[C@H](Cc4ccc(O)cc4)NC(=O)[C@@H](N)CCC)C(=O)N[C@@H](CCC(N)=O)C(=O)N[C@@H](CCCCN)C(=O)N[C@@H](Cc4c[nH]c5ccccc45)C(=O)N[C@@H](CCCC)C(=O)N[C@@H](Cc4c[nH]c5ccccc45)C(=O)N[C@@H]([C@@H](C)O)C(=O)N2)NC(=O)[C@H](CSSC[C@@H](C(=O)N[C@@H](CCCNC(=N)N)C(=O)N[C@@H](CCCCN)C(=O)N[C@H](C(=O)N[C@H](C(N)=O)[C@@H](C)CC)[C@@H](C)CC)NC(=O)[C@H](Cc2c[nH]c4ccccc24)NC(=O)[C@H](CC(C)C)NC(=O)[C@H](CCCCN)NC3=O)NC1=O` [compound 432] was tested, and the IC50 (hNav1.7; tonic block) was 1.43 nM and 1.56 nM, the IC50 (hNav1.4; tonic block) was 16.5 nM and the Nav1.4/Nav1.7 (hNav1.4) was 12.

Work on `C#CC[C@H](N)C(=O)NCCCC[C@@H]1NC(=O)[C@H](CCCNC(=N)N)NC(=O)[C@H](CCCCN)NC(=O)[C@H](CO)NC(=O)[C@H](CC(=O)O)NC(=O)[C@@H]2CSSC[C@@H]3NC(=O)[C@H](CCC(=O)O)NC(=O)[C@H](CC(C)C)NC(=O)CNC(=O)[C@H](CCC(=O)O)NC(=O)[C@H](CSSC[C@H](NC(=O)[C@H](Cc4ccc(O)cc4)NC(=O)[C@@H](N)CCC)C(=O)N[C@@H](CCC(N)=O)C(=O)N[C@@H](CCCCN)C(=O)N[C@@H](Cc4c[nH]c5ccccc45)C(=O)N[C@@H](CC(C)C)C(=O)N[C@@H](Cc4c[nH]c5ccccc45)C(=O)N[C@@H]([C@@H](C)O)C(=O)N2)NC(=O)[C@H](CSSC[C@@H](C(=O)N[C@@H](CCCNC(=N)N)C(=O)N[C@@H](CCCCN)C(=O)N[C@H](C(=O)N[C@@H](Cc2c[nH]c4ccccc24)C(N)=O)[C@@H](C)CC)NC(=O)[C@H](Cc2c[nH]c4ccccc24)NC(=O)[C@H](CC(C)C)NC(=O)[C@H](CCCCN)NC3=O)NC1=O` [compound 441] yielded an IC50 (hNav1.7; tonic block) of 10.4 nM.

In the case of `CCCC[C@@H]1NC(=O)[C@H](Cc2c[nH]c3ccccc23)NC(=O)[C@H](CCCCN)NC(=O)[C@H](CCC(N)=O)NC(=O)[C@@H](NC(=O)[C@H](Cc2ccc(O)cc2)NC(=O)[C@@H](N)Cc2ccccc2)CSSC[C@@H]2NC(=O)[C@@H]3CSSC[C@@H](C(=O)N[C@@H](CCCNC(=N)N)C(=O)N[C@@H](CCCCN)C(=O)N[C@H](C(=O)N[C@H](C(N)=O)[C@@H](C)CC)[C@@H](C)CC)NC(=O)[C@H](Cc4c[nH]c5ccccc45)NC(=O)[C@H](CC(C)C)NC(=O)[C@H](CCCCN)NC(=O)[C@H](CSSC[C@H](NC(=O)[C@H]([C@@H](C)O)NC(=O)[C@H](Cc4c[nH]c5ccccc45)NC1=O)C(=O)N[C@@H](CC(=O)O)C(=O)N[C@@H](CO)C(=O)N[C@@H](CCCCN)C(=O)N[C@@H](CCCNC(=N)N)C(=O)N[C@@H](C)C(=O)N3)NC(=O)[C@H](CCCNC(=N)N)NC(=O)[C@H](CC(C)C)NC(=O)CNC(=O)[C@H](CCC(=O)O)NC2=O` [compound 358], the IC50 (hNav1.7; [1]) is reported as 0.493 nM.
